# Laboratory results: the Kinase Knowledgebase extract (Sharma et al. 2016)
# Biological target: PIK3CG (human) (UniProt P48736)
# Test: Inhibition of PIK3CG Kinase Activity
# PIK3CG (human), sequence (P48736 whole entry, looked up): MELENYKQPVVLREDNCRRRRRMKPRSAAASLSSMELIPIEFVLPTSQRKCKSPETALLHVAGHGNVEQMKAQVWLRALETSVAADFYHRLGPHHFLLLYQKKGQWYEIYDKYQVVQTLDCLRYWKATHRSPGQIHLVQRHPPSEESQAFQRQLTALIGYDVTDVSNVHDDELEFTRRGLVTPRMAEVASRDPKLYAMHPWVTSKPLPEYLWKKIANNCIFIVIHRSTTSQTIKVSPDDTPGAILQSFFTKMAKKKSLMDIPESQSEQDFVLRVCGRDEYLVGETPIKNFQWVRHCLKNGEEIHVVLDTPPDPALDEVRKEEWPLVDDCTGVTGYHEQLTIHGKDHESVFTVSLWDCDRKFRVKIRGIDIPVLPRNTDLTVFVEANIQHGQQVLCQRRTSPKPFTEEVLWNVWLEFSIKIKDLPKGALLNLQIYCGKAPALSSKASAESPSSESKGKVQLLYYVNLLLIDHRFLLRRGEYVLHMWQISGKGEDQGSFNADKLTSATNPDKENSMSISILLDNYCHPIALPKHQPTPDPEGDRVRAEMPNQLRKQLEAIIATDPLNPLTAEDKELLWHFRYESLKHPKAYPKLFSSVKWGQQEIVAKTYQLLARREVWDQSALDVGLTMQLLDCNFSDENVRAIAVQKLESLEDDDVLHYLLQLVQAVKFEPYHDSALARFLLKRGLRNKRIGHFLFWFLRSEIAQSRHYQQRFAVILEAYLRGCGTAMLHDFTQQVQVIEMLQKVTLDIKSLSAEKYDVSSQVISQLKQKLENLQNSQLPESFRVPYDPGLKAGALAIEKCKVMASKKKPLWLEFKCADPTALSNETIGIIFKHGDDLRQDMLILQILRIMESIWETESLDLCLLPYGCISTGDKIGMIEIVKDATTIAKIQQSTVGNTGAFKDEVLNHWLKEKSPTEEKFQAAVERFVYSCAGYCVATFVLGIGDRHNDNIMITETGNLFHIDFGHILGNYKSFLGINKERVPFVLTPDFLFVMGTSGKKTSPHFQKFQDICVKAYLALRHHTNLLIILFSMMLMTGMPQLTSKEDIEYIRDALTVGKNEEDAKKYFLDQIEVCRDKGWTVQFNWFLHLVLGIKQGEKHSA
row,Compound,IC50 [nM]
1,CCCn1nc(CCNC(=O)Nc2nc3c(s2)-c2c(cnn2-c2ccccc2C(F)(F)F)C3)cc1N,< 800
2,CC(C)c1cnc(CCNC(=O)Nc2nc3c(s2)-c2c(cnn2-c2ccccc2Cl)C3)o1,< 800
3,O=C(Nc1nc2c(s1)-c1c(cnn1-c1ccccc1Cl)C2)Nc1ccccc1CN1CCNC1=O,< 800
4,CN(C)C(=O)CNC(=O)Nc1nc2c(s1)-c1c(cnn1-c1ccccc1C(F)(F)F)C2,< 800
5,Nc1cc(CNC(=O)Nc2nc3c(s2)-c2c(cnn2-c2ccccc2C(F)(F)F)C3)[nH]n1,< 800
6,CC(C)(NC(=O)Nc1nc2c(s1)-c1c(cnn1-c1ccccc1Cl)C2)C1Nc2ccccc2NC1=O (stereo not drawn),< 800
7,Cc1cc(-c2cccnc2)nn1CCNC(=O)Nc1nc2c(s1)-c1c(cnn1-c1ccccc1C(F)(F)F)C2,< 800
8,CC(C)(C)OC(=O)NCc1cccc(CNC(=O)Nc2nc3c(s2)-c2c(cnn2-c2ccccc2Cl)C3)c1,< 800
9,CCn1cnc(CCNC(=O)Nc2nc3c(s2)-c2c(cnn2-c2cccc(F)c2C(F)(F)F)C3)c1,< 800
10,CC(C)(C)OC(=O)NC1CCN(C(=O)Nc2nc3c(s2)-c2c(cnn2-c2ccccc2Cl)C3)C1 (stereo not drawn),< 800
11,O=C(NCc1ccccc1-n1cccn1)Nc1nc2c(s1)-c1c(cnn1-c1ccccc1Cl)C2,< 800
12,O=C(Nc1nc2c(s1)-c1c(cnn1-c1ccccc1Cl)C2)N1CCC(N2CCNC2=O)CC1,< 800
13,CCN1CCC2(CCN(C(=O)Nc3nc4c(s3)-c3c(cnn3-c3ccccc3Cl)C4)C2)C1 (stereo not drawn),< 800
14,Cc1nn(C)cc1CNC(=O)Nc1nc2c(s1)-c1c(cnn1-c1ccccc1Cl)C2,< 800
15,CCN1CCC[C@H]1CNC(=O)Nc1nc2c(s1)-c1c(cnn1-c1ccccc1Cl)C2,< 800
16,O=C(NCc1cc(C2CC2)n[nH]1)Nc1nc2c(s1)-c1c(cnn1-c1ccccc1Cl)C2,< 800
17,Cn1ccc(CNC(=O)Nc2nc3c(s2)-c2c(cnn2-c2ccccc2C(F)(F)F)C3)n1,< 800
18,CC(C)c1noc(CCNC(=O)Nc2nc3c(s2)-c2c(cnn2-c2ccccc2C(F)(F)F)C3)n1,< 800
19,Cn1cccc1CCNC(=O)Nc1nc2c(s1)-c1c(cnn1-c1ccccc1Cl)C2,< 800

row,Compound,IC50 [nM]
1,O=C(NCCc1nc(C2CC2)no1)Nc1nc2c(s1)-c1c(cnn1-c1ccccc1C(F)(F)F)C2,< 800
2,O=C(NCc1ccc(CN2CCNC2=O)cc1)Nc1nc2c(s1)-c1c(cnn1-c1ccccc1Cl)C2,< 800
3,Cn1cc(CNC(=O)Nc2nc3c(s2)-c2c(cnn2-c2ccccc2Cl)C3)cn1,< 800
4,O=C(NCc1ncc[nH]1)Nc1nc2c(s1)-c1c(cnn1-c1ccccc1Cl)C2,< 800
5,O=C(Nc1nc2c(s1)-c1c(cnn1-c1ccccc1Cl)C2)N1CCCC(c2nc3ccccc3[nH]2)C1 (stereo not drawn),< 800
6,Nc1cc(CCNC(=O)Nc2nc3c(s2)-c2c(cnn2-c2ccccc2C(F)(F)F)C3)nn1CCO,< 800
7,O=C(NCc1cc(C2CC2)n[nH]1)Nc1nc2c(s1)-c1c(cnn1-c1ccccc1Br)C2,< 800
8,CC(C)(C)c1cc(CNC(=O)Nc2nc3c(s2)-c2c(cnn2-c2ccccc2C(F)(F)F)C3)[nH]n1,< 800
9,O=C(NCc1ccccn1)Nc1nc2c(s1)-c1c(cnn1-c1ccccc1C(F)(F)F)C2,< 800
10,O=C(NCCc1ccccc1)Nc1nc2c(s1)-c1c(cnn1-c1ccccc1Cl)C2,< 800
11,CC(C)(C)OC(=O)NCC1CCCN1C(=O)Nc1nc2c(s1)-c1c(cnn1-c1ccccc1Cl)C2 (stereo not drawn),< 800
12,O=C1Cc2ccccc2CN1CC1CCN(C(=O)Nc2nc3c(s2)-c2c(cnn2-c2ccccc2Cl)C3)C1 (stereo not drawn),< 800
13,CC(C)(C)n1nc(CNC(=O)Nc2nc3c(s2)-c2c(cnn2-c2ccccc2C(F)(F)F)C3)cc1N,< 800
14,CCCNC(=O)Nc1nc2c(s1)-c1c(cnn1-c1ccc(C(=O)NC)cc1C(F)(F)F)C2,< 800
15,CC1CC(c2ccc(O)cc2)CN1C(=O)Nc1nc2c(s1)-c1c(cnn1-c1ccccc1Cl)C2 (stereo not drawn),< 800
16,Cn1nc(CNC(=O)Nc2nc3c(s2)-c2c(cnn2-c2ccccc2C(F)(F)F)C3)cc1N,< 800
17,CC(C)(C)OC(=O)N1CCC(CNC(=O)Nc2nc3c(s2)-c2c(cnn2-c2ccccc2Cl)C3)CC1,< 800
18,N#Cc1ccc(CNC(=O)Nc2nc3c(s2)-c2c(cnn2-c2ccccc2C(F)(F)F)C3)s1,< 800
19,CCNC(=O)Nc1nc2c(s1)-c1c(cnn1-c1ccccc1C(F)(F)F)C2,< 800
